Like-named read-outs stand apart in the source and are kept apart here. Each block holds one compound with its values, some of them ahead of it.
Type: physicochemical
Conditions: for Iodide formed: 50 mM agent, 10 mM TRIS, pH 7.4, autoclaved then UV 18 h
Procedure: The lamps were switched on and the solutions irradiated for 18 to 24 hours for the ultraviolet (UV) lamps or 72 to 90 hours for the visible (VIS) light lamps. At the end of the selected irradiation time, the cuvettes were removed from the photolysis chamber and mixed by inversion 2-times. The caps were then removed and 40 microliter aliquots taken and diluted with 1 mL of an aqueous solution containing ˜0.9 mg/mL sodium thiosulfate. The thiosulfate solution converted any I2, IO3^−, and I3^− present in the solution tor such that total iodine species could be determined in one assay.
The diluted solutions were assayed by high pressure liquid chromatography (HPLC) using a 4.6×250 mm, C-18, 5 micron particle size, reversed phase column with detection at 280 nm for the contrast agent and 230 nm for the thiosulfate and the iodide ion (r). A mobile phase of 30:70 methanol:aqueous buffer (50 mM KH2PO4+7 mL/L 40% tetrabutyl ammonium hydroxide) at 0.75 mL/min was used for elution. Injection volume was 20 microliters. External standards were prepared containing each contrast agent, potassium iodide, and sodium thiosulfate solution and analyzed along with the irradiated samples. The results were reported as weight percentage iodide formed (mg iodide/mg contrast agent times 100).
Aqueous solutions were prepared containing 50 mM iodinated contrast agent, 10 mM tromethamine HCl buffer (TRIS), with and without sulfobutylether beta-cyclodextrin with an average degree of substitution-7 (SBE7-β-CD), or 2-hydroxypropyl beta-cyclodextrin with an average degree of substitution of ˜6.3 (HP6.3-β-CD) or ˜4.3 (HP4.3-β-CD). The iohexol solution was prepared by dissolving solid iohexol powder while the other solutions were prepared by diluting commercial formulated products and adding sufficient TRIS buffer to reach 10 mM. The pH of the solutions was adjusted to 7.4 with 0.1N hydrochloric acid.
Aliquots of the solutions were irradiated with visible light for 72 hours (0.52 million lux hours). Other aliquots were autoclaved for 20 minutes at 121° C., cooled to room temperature and then irradiated with ultraviolet light for 18 hours (119 watt hours/m2). The solutions were then processed, analyzed and reported as in Example 2, except that the chromatographic peaks of the contrast agents were evaluated at 300 nm for both samples and standards.
Aqueous solutions were prepared containing 50 mM iohexol, 0, 2.5, 5, 7.5, or 10 mM tromethamine HCl (TRIS) buffer, with and without 2.5 mM sulfobutylether beta-cyclodextrin with an average degree of substitution-7 (SBE7-β-CD). The pH of the solutions was adjusted to 7.4 with 0.1N hydrochloric acid and the solutions were transferred to glass vials. The vials were stoppered, crimp-capped and autoclaved for 20 minutes at 121° C. The pH of the autoclaved solutions was measured after the solutions were at room temperature.
Aliquots of the autoclaved solutions were irradiated with visible light for 72 hours (0.52 million lux hours) and other aliquots irradiated with ultraviolet light for 18 hours (119 watt hours/m2). The solutions were then processed, analyzed and reported as in Example 2, except that the chromatographic peak of the iohexol was evaluated at 300 nm for both samples and standards.
Aqueous formulations were prepared containing iodinated contrast agents at concentrations used commercially in medical procedures. Sulfobutylether-cyclodextrin, sodium salt, average degree of substitution ˜7 (SBE7CD) was added at varying agent:CD mole ratios. The formulations were placed in glass vials, sealed with rubber stoppers and aluminum crimps, and autoclaved at 121° C. for 20 minutes. […]

Structure (SMILES): CC(=O)N(CC(O)CN(C(C)=O)c1c(I)c(C(=O)NCC(O)CO)c(I)c(C(=O)NCC(O)CO)c1I)c1c(I)c(C(=O)NCC(O)CO)c(I)c(C(=O)NCC(O)CO)c1I (stereo not shown) [Iodixanol, iodixanol]
Iodide formed (agent:SBE7-β-CD 1:0.1): 0.220 wt % | Iodide formed (no SCD (1:0)): 0.292 wt % | Iodide Formed, UV (Iodixanol 270 mg I/mL, pH 7.4, agent:SBE7CD 1:0.05, autoclaved then UV 24 h): 0.0791 wt % | Iodide Formed, VIS (Iodixanol 270 mg I/mL, pH 7.4, agent:SBE7CD 1:0.05, autoclaved then VIS 72 h): 0.0288 wt % | Iodide Formed, UV (Iodixanol 270 mg I/mL, pH 7.4, no SCD (1:0), autoclaved then UV 24 h): 0.0845 wt % | Iodide Formed, VIS (Iodixanol 270 mg I/mL, pH 7.4, no SCD (1:0), autoclaved then VIS 72 h): 0.0325 wt % | Iodide Formed, UV (Iodixanol 320 mg I/mL, pH 7.4, agent:SBE7CD 1:0.05, autoclaved then UV 24 h): 0.0743 wt % | Iodide Formed, VIS (Iodixanol 320 mg I/mL, pH 7.4, agent:SBE7CD 1:0.05, autoclaved then VIS 72 h): 0.0251 wt % | Iodide Formed, UV (Iodixanol 320 mg I/mL, pH 7.4, no SCD (1:0), autoclaved then UV 24 h): 0.0751 wt % | Iodide Formed, VIS (Iodixanol 320 mg I/mL, pH 7.4, no SCD (1:0), autoclaved then VIS 72 h): 0.0265 wt %

Iodide formed (agent:SBE7-β-CD 1:0.1): 0.330 wt % | Iodide formed (no SCD (1:0)): 0.487 wt % | Iodide Formed, UV (Iopromide 150 mg I/mL, pH 7.4, agent:SBE7CD 1:0.05, autoclaved then UV 24 h): 0.110 wt % | Iodide Formed, VIS (Iopromide 150 mg I/mL, pH 7.4, agent:SBE7CD 1:0.05, autoclaved then VIS 72 h): 0.0671 wt % | Iodide Formed, UV (Iopromide 150 mg I/mL, pH 7.4, no SCD (1:0), autoclaved then UV 24 h): 0.148 wt % | Iodide Formed, VIS (Iopromide 150 mg I/mL, pH 7.4, no SCD (1:0), autoclaved then VIS 72 h): 0.0735 wt % | Iodide Formed, UV (Iopromide 240 mg I/mL, pH 7.4, agent:SBE7CD 1:0.05, autoclaved then UV 24 h): 0.113 wt % | Iodide Formed, VIS (Iopromide 240 mg I/mL, pH 7.4, agent:SBE7CD 1:0.05, autoclaved then VIS 72 h): 0.0413 wt % | Iodide Formed, UV (Iopromide 240 mg I/mL, pH 7.4, no SCD (1:0), autoclaved then UV 24 h): 0.129 wt % | Iodide Formed, VIS (Iopromide 240 mg I/mL, pH 7.4, no SCD (1:0), autoclaved then VIS 72 h): 0.0504 wt % | Iodide Formed, UV (Iopromide 300 mg I/mL, pH 7.4, agent:SBE7CD 1:0.05, autoclaved then UV 24 h): 0.102 wt % | Iodide Formed, VIS (Iopromide 300 mg I/mL, pH 7.4, agent:SBE7CD 1:0.05, autoclaved then VIS 72 h): 0.0426 wt % | Iodide Formed, UV (Iopromide 300 mg I/mL, pH 7.4, no SCD (1:0), autoclaved then UV 24 h): 0.110 wt % | Iodide Formed, VIS (Iopromide 300 mg I/mL, pH 7.4, no SCD (1:0), autoclaved then VIS 72 h): 0.0493 wt % | Iodide Formed, UV (Iopromide 370 mg I/mL, pH 7.4, agent:SBE7CD 1:0.05, autoclaved then UV 24 h): 0.0780 wt % | Iodide Formed, VIS (Iopromide 370 mg I/mL, pH 7.4, agent:SBE7CD 1:0.05, autoclaved then VIS 72 h): 0.0351 wt % | Iodide Formed, UV (Iopromide 370 mg I/mL, pH 7.4, no SCD (1:0), autoclaved then UV 24 h): 0.0989 wt % | Iodide Formed, VIS (Iopromide 370 mg I/mL, pH 7.4, no SCD (1:0), autoclaved then VIS 72 h): 0.0392 wt %
Structure (SMILES): COCC(=O)Nc1c(I)c(C(=O)NCC(O)CO)c(I)c(C(=O)N(C)CC(O)CO)c1I (stereo not shown) [Iopromide, iopromide]

Reference: patent publication US20220096664A1, “STABILIZED FORMULATIONS CONTAINING IODINATED CONTRAST AGENTS AND CYCLODEXTRINS” (Verrow Pharmaceuticals, Inc., priority 2012, published 2022)
